Experimental data taken from patent US20050084500A1, “Growth promoter composition for animals” (priority 2001, published 2005).
Where two headings read alike, the source gives them in different places.

Tests used:
[1] = Influence of Lentinus edodes on the zootechnic performance of poultry (feeding trial); type: in vivo, chickens; details: Lentinus edodes at 0.5% of feed where present; for FCR: feed conversion ratio, chickens, end of trial; for Daily growth: one day old chickens, feed ad libitum
Excerpt: 20×40 one day old chickens were provided with following feeds: control feed, control feeds supplemented with a growth-promoting component, control feed supplemented with 0.5% fungi (Lentinus edodes) and control feed supplemented with a growth-promoting component and with 0.5% fungi (Lentinus edodes). As used herein, the term “control feed” refers to a standard animal feed for meat-producing animals, i.e. feed that can be used in the animal husbandry field and is suitable to be fed to meat-producing animals to supply part or all of the meat-producing animal's nutrient requirements. Water and feed were supplied ad libitum. At the end of the trial, chickens were weighed and feed conversion ratio's were determined (Table 1). Microbial contents in the gastrointestinal tract were determined by plate counting.

[2] = type: in vivo; details: for FCR: feed conversion ratio per trial group; for FCR / Mortality: piglets 7-20 kg; for Mortality: whole trial; for Number of veterinary treatments: sum of all treatments performed on the animals during the total period of the trial; for Daily growth: weaned piglets, 7-20 kg, fed ad libitum
Excerpt: The present example relates to the effects of a composition according to the invention comprising a fungus at and least one growth promoting element on piglet performance of piglets in the phase 7-20 kg.
Commercial available weaning and starter feeds were used. During the first 2 weeks, a weaning feed was given to the piglets. From the third week till the end of the trial, i.e. at an average weight of 20 kg, the piglets received a starter feed. The trial feeds used are illustrated in table 2. During the whole trial period the piglets were fed ad libitum. The piglets under study were 120 weaned barrows and sows, with an age of 28 days at weaning. In the stable, 12 pens were present which contained each 10 piglets. For each trial, 3 replicates of 10 piglets were used. Ventilation and heating was automatically controlled. In each pen, 1 drinking nipple was present for water supply. Piglets were distinguished and weighed individually. They were allocated randomly to the different groups so that the average weight of each group was equal. A total of 120 animals was monitored. The following parameters were monitored during the trial: • the feed intake per trial group (measured at the end of the trial) • the weight of the individual animals (was measured at the beginning and at the end of the trial) • the feed conversion ratio per trial group was calculated • veterinary treatments and • mortality.

| Compound | FCR [1] | Daily growth [1] | FCR [2] | Mortality [2] | Number of veterinary treatments [2] | Daily growth [2] |
| --- | --- | --- | --- | --- | --- | --- |
| COC[C@H]1O[C@@H](OC2OC[C@@H]3O[C@]4(O[C@H]3[C@H]2OC(=O)C(C)C)O[C@H](C)[C@@](O)(C(C)=O)[C@@H]2OCO[C@H]24)[C@@H](OC)[C@@H](O)[C@@H]1O[C@@H]1O[C@H](C)[C@H](OC)[C@H](O[C@H]2C[C@@]3(C)OC4(C[C@@H](O)[C@H](O[C@H]5C[C@@H](O)[C@H](OC(=O)c6c(C)c(Cl)c(O)c(Cl)c6OC)[C@@H](C)O5)[C@@H](C)O4)O[C@@H]3[C@@H](C)O2)[C@H]1O (stereo partly drawn) [control + Avilamycin, Avilamycin] | 1.59 | 53.99 g/chicken/day | 1.65 | 3.3% | 25 | 365 g/pig/day |
| CC[C@@H](C(=O)[C@@H](C)[C@@H](O)[C@H](C)[C@@H]1O[C@@H]([C@@H](CC)C(=O)O)CC[C@@H]1C)[C@H]1O[C@]2(C=C[C@@H](O)[C@]3(CC[C@@](C)([C@H]4CC[C@](O)(CC)[C@H](C)O4)O3)O2)[C@H](C)C[C@@H]1C [control + Salinomycine, Salinomycine] | 1.60 | 54.06 g/chicken/day | 1.70 | 6.6% | 26 | 362 g/pig/day |
| O=CO [control + formic acid, formic acid] | 1.55 | 52.18 g/chicken/day | 1.69 | 10.0% | 28 | 351 g/pig/day |
| OP(O)O [control + phophorous acid, phophorous acid] | 1.56 | 52.23 g/chicken/day | 1.69 | 6.6% | 30 | 346 g/pig/day |
| inulin [control + inulin] | 1.65 | 51.09 g/chicken/day | 1.78 | 10% | 32 | 330 g/pig/day |
